What was measured:
Type in all cases: in vivo
[1] = test system: ragweed (common ragweed, Ambrosia artemisiifolia); assay: Test A1 postemergence, ragweed; details: Postemergence
Summary of the method: (§1)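 Seeds were first planted into a blend of loam soil and sand and given a preemergence directed soil spray. In parallel, pots of the same soil were sown for postemergence application once plants reached 2 to 10 cm and the one- to two-leaf stage. Both used surfactant-containing non-phytotoxic solvent formulations.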

[2] = test system: soybean (Glycine max); assay: Test A1 postemergence, soybean; details: Postemergence
Summary of the method: (§2)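 Pre: seeds in loam/sand blend, directed soil spray. Post: potted plants, same soil, 2–10 cm, 1–2 leaf stage. Chemicals in non-phytotoxic solvent + surfactant for both.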

[3] = test system: blackgrass (Alopecurus myosuroides); assay: Test A1 postemergence, blackgrass; details: Postemergence, 0 to 100 scale (0 no effect, 100 complete control)
Summary of the method: as §2

[4] = test system: galium (catchweed bedstraw, Galium aparine); assay: Test A1 postemergence, galium; details: Postemergence
Summary of the method: as §2

[5] = test system: kochia (Bassia scoparia); assay: Test A1 preemergence, kochia
Summary of the method: (§3)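 Plants grown in pots of loam/sand mix; preemergence = soil-directed spray on seeded pots, postemergence = spray at 1–2 leaves, height 2–10 cm; test chemicals formulated in non-phytotoxic solvent with surfactant.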

[6] = test system: corn (Zea mays); assay: Test A1 preemergence, corn
Summary of the method: as §1

[7] = test system: Ryegrass, Italian (Italian ryegrass, Lolium multiflorum); assay: Test A1 preemergence, Ryegrass, Italian
Summary of the method: as §3

[8] = test system: ducksalad (Heteranthera limosa); assay: Test B1 flooded paddy test, ducksalad; details: 250 g ai/ha, Flood, applied to paddy water, 2-leaf stage, visually evaluated after 10 to 14 days
Text: A dash (-) response means no test result.

[9] = 31 g ai/ha, 0 to 100 scale (0 no effect, 100 complete control), 10 days
[10] = 31 g ai/ha, 0 to 100 scale (0 no effect, 100 complete control)
[11] = 125 g ai/ha, 0 to 100 scale, 0 no effect, 100 complete control

Row | SMILES | Plant response rating, Ragweed [1, 9] | Plant response rating, Ragweed ([1]; 125 g ai/ha, 0 to 100 scale) | Plant response rating, Soybean [2, 9] | Plant response rating, Soybean ([2]; 125 g ai/ha, 0 to 100 scale) | Plant response rating, Blackgrass ([3]; 31 g ai/ha, 10 days) | Plant response rating, Blackgrass ([3]; 125 g ai/ha) | Plant response rating, Galium [4, 9] | Plant response rating, Galium ([4]; 125 g ai/ha, 0 to 100 scale) | Plant response rating, Kochia [5, 10] | Plant response rating, Kochia [5, 11] | Plant response rating, Corn [6, 10] | Plant response rating, Corn [6, 11] | Plant response rating, Ryegrass, Italian [7, 10] | Plant response rating, Ryegrass, Italian [7, 11] | Plant response rating, Ducksalad (0 to 100 scale, 0 is no effect, 100 is complete control) [8]
1 | COCC1CC(c2cc(NS(=O)(=O)C(F)(F)F)c(C)cc2C)=NO1 (stereo not drawn) [Compound 319] | 30 | 60 | 20 | 50 | 0 | 10 | 40 | 70 | 0 | 40 | 40 | 90 | 50 | 90 | 85
2 | Cc1c(C(=O)N(C)C)cc(NS(=O)(=O)C(F)(F)F)c(Cl)c1F [Compound 320] | 40 | 80 | 20 | 70 | 40 | 0 | 70 | 90 | 20 | 50 | 0 | 30 | 90 | 90 | 60
3 | Cc1c(C(=O)N2CCOCC2)cc(NS(=O)(=O)C(F)(F)F)c(Cl)c1F [Compound 321] | 90 | 90 | 20 | 40 | 10 | 10 | 100 | 100 | 80 | 90 | 0 | 30 | 60 | 60 | 95
4 | Cc1cc(C)c(C2=NOC(OCC(C)C)C2)cc1NS(=O)(=O)C(F)(F)F (stereo not drawn) [Compound 322] | 70 | 80 | 20 | 30 | 20 | 50 | 40 | 70 | 0 | 20 | 0 | 30 | 60 | 90 | 0
5 | CCCCOC1CC(c2cc(NS(=O)(=O)C(F)(F)F)c(C)cc2C)=NO1 (stereo not drawn) [Compound 323] | 0 | 50 | 0 | 30 | 0 | 50 | 50 | 80 | 20 | 90 | 0 | 10 | 40 | 90 | 0
6 | Cc1c(C(=O)N2CCOCC2)cc(N(COC(=O)C(C)(C)C)S(=O)(=O)C(F)(F)F)c(C)c1C [Compound 324, [[(Trifluoromethyl)sulfonyl][2,3,4-trimethyl-5-(4-morpholinylcarbonyl)phenyl]amino]methyl 2,2-dimethylpropanoate] | 70 | 70 | 50 | 60 | 0 | 0 | 50 | 80 | 60 | 90 | 20 | 40 | 20 | 100 | 80
7 | CCOC(=O)N(c1cc(C(=O)N2CCOCC2)c(C)c(C)c1C)S(=O)(=O)C(F)(F)F [Compound 325] | 0 | 70 | 50 | 80 | 0 | 90 | 40 | 90 | 20 | 70 | 0 | 40 | 40 | 90 | 95

Reference: US20230278972A1, “SUBSTITUTED HALOALKYL SULFONANILIDE HERBICIDES” (FMC Corporation, priority 2020, published 2023)
